Measured values reported in publication PMC11351612, “Heteronuclear Complexes with Promising Anticancer Activity against Colon Cancer” (Biomedicines, 2024).

Experiments:
[1] = tested on: Caco-2/PD7 cells; experiment: Annexin V/propidium iodide apoptosis assay, Caco-2/PD7; assay type: cell-based, human; details: Caco-2/PD7, IC50 concentration, 72 h; control 35.8%
Protocol: (§1) Study of cell death. After the appropriate incubation, cells were collected and stained with annexin V-FTIC, according to the manufacturer’s instructions. A negative control was prepared, containing unreacted cells to define the basal level of apoptotic and necrotic or dead cells. After incubation, the cells were transferred to flow-cytometry tubes and washed twice with temperate phosphate-buffered saline (PBS), suspended in 100 μL annexin V binding buffer (10 mM Hepes/NaOH, pH 7.4, 140 mM NaCl, 2.5 mM CaCl2), then 5 μL of annexin V-FITC, and 5 μL of PI was added to each 100 μL of cell suspension. After incubation for 15 min at room temperature in the dark, 400 μL of 1× annexin binding buffer was added and analysed by flow cytometry within one hour. The signal intensity was measured using a FACSARIA BD and analysed using FASCDIVA BD.
(§2) This inhibition of apoptosis produces a fast growth and proliferation of cancerous cells. The population of early and late apoptotic cells increased to 35% after treatment with complex 1 in comparison with the vehicle-treated cells (12%). […] Additionally, the effect observed after treating the cells with a dosage equal to the IC50 concentration is time-dependent. […]

[2] = tested on: pIRES2-EGFP (5308 pb) plasmid DNA; experiment: Gel electrophoretic mobility of plasmid DNA; assay type: binding; details: metal-to-base pair ratios 0.5, 1, 2; 0.8% agarose gel
Protocol: Adducts with pIRES2-EGFP (5308 pb) plasmid DNA (Catalog #6029-1) were prepared by adding the required volume of a freshly prepared solution of metal complexes in MilliQ water. The concentration of pIRES2-EGFP in the reaction mixture was 117 ng/µL, and the complexes’ concentration was varied to give different metal-to-base pair stoichiometries (0.5, 1 and 2). The mobility of the metal complex-treated pIRES2-EGFP samples was analysed by gel electrophoresis on a 0.8% (w/v) agarose gel (Boehringer-Mannheim, Mannheim, Germany) at […] at 25 °C in Tris-acetate/EDTA buffer. The gel was stained for 30 min in […] (w/v) ethidium bromide and the bands were visualised with a UVP gel scanner.
In addition, the interaction of both complexes with DNA was also studied by their ability to modify the electrophoretic mobility of the pIRES2-EGFP (5308 pb) plasmid DNA and compared to cisplatin (Figure 7).

[3] = tested on: Caco-2/PD7 cells; experiment: Cell cycle analysis (PI, flow cytometry), Caco-2/PD7; assay type: cell-based, human; details: Caco-2/PD7, IC50 concentration, 72 h
Protocol: (§3) Cell cycle analysis. After treatment, the cells were fixed in 70% ice-cold ethanol and stored at 4 °C for 24 h. After centrifugation, the cells were rehydrated in PBS (phosphate-buffered saline) and stained with propidium iodide (PI, 50 μg/mL) solution containing RNase A (100 μg/mL). PI-stained cells were analysed for DNA content in a FACSARRAY BD equipped with an argon ion laser. […] Cell cycle distribution was determined on a linear scale. The percentage of cells in cycle phases was determined using MODIFIT 3.0 verity software.
(§4) To investigate the influence of the heteronuclear derivative 1 on the cell cycle distribution of Caco-2 cells, propidium iodide-stained cells were analysed by flow cytometry. The distribution of cells found in each stage of the cell cycle for the control samples was sufficiently homogeneous (Figure 4). For both cell lines, samples analysed after 48 h of incubation had 22% of the cells in the G0/G1 phase, ca. 45% of cells in the synthesis phase, and approximately 30% of cells undergoing the G2 phase or cell division. The low percentage of cells observed in the G0 and G1 phases may be indicative of elevated proliferation and an uncontrolled growth of cancerous cells. It would be of interest to ascertain whether the complexes chosen for the treatments could arrest the cell cycle at phases preceding cell division, thereby inhibiting the proliferation of cancer cells.

[4] = tested on: thioredoxin reductase (TrxR); details: undifferentiated Caco-2/TC7, IC50 concentration, 24 h incubation
Protocol: The Caco-2 cell line (TC7 clone) was seeded in a 25 cm^2 flask (2 × 10^6). […] The procedural guidelines of the supplied kit were followed. […] The outcomes were presented as a percentage representing the TrxR activity relative to the control.

[5] = tested on: Caco-2/TC7 cells; experiment: Annexin V/propidium iodide apoptosis assay, Caco-2/TC7; assay type: cell-based, human; details: Caco-2/TC7, IC50 concentration; vehicle 12%
Protocol: as §1, §2

[6] = tested on: Caco-2/TC7 cells; experiment: Cell cycle analysis (PI, flow cytometry), Caco-2/TC7; assay type: cell-based, human; details: Caco-2/TC7, IC50 concentration, 48 h and 72 h
Protocol: as §3, §4

[7] = Solubility in water at 25 °C

[Cu{Au(Spy)(PTA)}2]PF6 [compound 1]
Apoptotic cells (early + late apoptosis) [1]: 62.4% | Effect on electrophoretic mobility of plasmid DNA [2]: significant effect on the mobility | Effect on cell cycle distribution [3]: not enough living cells being found for the analysis | Effect on TrxR activity [4]: inhibited TrxR activity | Population of early and late apoptotic cells [5]: 35% | Effect on cell cycle distribution [6]: arrest of the cell cycle in Caco-2/TC7 cells within the G0/G1 phases | S 25 °C, H2O [7]: < 0.5 g/L
